Results on 17 molecules are retold here after US11241436B2, “Autophagy inducers for treatment of CNS conditions” (Northwestern University, priority 2017, dated 2022).

In the first data set the test system is WT mice. Briefly: Analgesic tolerance test during chronic WIN treatment. The format is in vivo, mouse. The note with it: after 14 d of repeated WIN dosage (day 14). Here is the method:
Briefly, mice were injected with WIN for 14 d, and analgesic tolerance was measured without WIN treatment on day 0, and after 1-h WIN treatment on day 1 and day 14.
There were no genotype differences either in basal pain sensitivity to infrared heat-generated pain (agonist-free, day 0) (FIG. 2C), or in analgesic effects of acute WIN treatment prior to chronic WIN administration (day 1) (FIG. 2D).
Turning to `Cc1c(C(=O)c2cccc3ccccc23)c2cccc3c2n1[C@H](CN1CCOCC1)CO3` [WIN, reference compound], the “analgesic effect of WIN” value is recorded as “markedly decreased”.

The next data set relates to Aβ42. Briefly: Dot blot assay of Aβ42 in brain of 5XFAD mice. The format is in vivo, mouse. The note with it: 5XFAD Becn1 F121A mice, 2 mg/kg i.p. once per day for 7 days. Here is the method:
Total protein loading was labeled by Ponceau S. N=5. **, P<0.01, t test.
Total protein loading was labeled by Ponceau S. Triplicate experiments from 4-5 mice in each group were shown. Results represent mean±s.e.m. NS, not significant; *, P<0.05; **, P<0.01; ***, P<0.001, t test.
Total protein loading was labeled by Ponceau S. Triplicate experiments from 4 mice in each group were shown.
Dot blot assay. Snap frozen hemi-brain were homogenized in 800 μl phosphate-buffered saline (PBS; Sigma-Aldrich, D8537) with 1% Triton X-100 supplemented with halt proteinase inhibitor cocktail (ThermoFisher Scientific), and halt phosphatase inhibitor cocktail (ThermoFisher Scientific). Protein concentration was quantified using BCA Assay (Pierce). For Af342 dot blots, 10 mg/ml brain homogenates were extracted in guanidine buffer (5 M guanidine-HCl [GuHCl], 50 mM Tris HCl pH 8.0) overnight at room temperature. One μl of sample was spotted in triplicate on 0.2 μm nitrocellulose membrane, and dried for 1 h at 37° C. The membrane was stained with Ponceau S, and the dot blot signal on the membrane was detected by immunostaining with Aβ42 antibody (Invitrogen, 700254, 1:1000) and HRP-conjugated secondary antibody (Santa Cruz Biotechnology, sc2004, 1:2000). Aβ42 signals were normalized to the Ponceau S staining. To separate soluble and insoluble Aβ fractions, 10 mg/ml of the total homogenated brains were centrifuged at 14000 rpm, 4° C. for 30 min. The supernatant (soluble fraction) was used directly for dot blot assays. The pellet (insoluble fraction) was extracted in guanidine buffer overnight at room temperature, and used in dot blot analyses. […] One μl of each sample was spotted on nitrocellulose membrane for dot blot analysis.
As for `CNC(=O)c1ccccc1Oc1nc(Nc2cc(OC)c(OC)c(OC)c2)ncc1Br` [SBI-0206965, reference compound], the “Becn1 F121A-induced reduction in brain Aβ42 levels” value is on record as “abolished the reduction”.

Tested on in the next data set: not listed separately
Put plainly: Body weight during chronic WIN treatment. The format is in vivo, mouse. Conditions: mice of all genotypes during chronic WIN treatment. The source says:
N=9-13 mice/group. Results represent mean±s.e.m.
Take `Cc1c(C(=O)c2cccc3ccccc23)c2cccc3c2n1[C@H](CN1CCOCC1)CO3` [WIN, reference compound]: the body weight entry is recorded as “remained constant”.

The test system of another data set is CB1R signaling. Put plainly: CB1R signaling in brain (phosphorylation of MEK and JNK) after chronic WIN. The format is in vivo, mouse. Conditions: repeated WIN treatment 14 d. Here is the method: WT mice were treated with either daily WIN or vehicle for 14 d, and then subject to an acute dosage of WIN 1 h prior to collection of brain samples.
To investigate whether restoration of CB1R signaling underlies the behavioral regulation by autophagy activation, the level and functionality of CB1R in mouse brain after co-administration of chronic cannabinoids and autophagy inducers were analyzed. […] To determine whether the increased level of CB1R represents CB1R re-sensitization in the brain, the agonist-induced phosphorylation of signaling kinases downstream of CB1R after chronic WIN exposure were analyzed.
Regarding `Cc1c(C(=O)c2cccc3ccccc23)c2cccc3c2n1[C@H](CN1CCOCC1)CO3` [WIN, reference compound], the “activation of CB1R (CNR1) signaling induced by agonists” value is reported as “decreased activation”.

A further data set relates to LC3. Put plainly: Promega Autophagy Assay System (HiBiT-tagged LC3 reporter, autophagy flux). The format is cell-based. Conditions: LC3 reporter signal; decrease = increased autophagy. The source says: The Promega Augophagy Assay System uses LC3 to monitor the autophagy process. […] LgBiT is a […] recombinant protein derived from NanoLuc. When HiBiT associates with LgBiT, a strong luciferase activity is reconstituted. An increase in autophagy will accelerate the degradation of LC3 reporter which decreases the assay signal. In contrast, inhibition of autophagy causes the accumulation of LC3 which will increase the reporter levels and assay signal.
The term AC50 denotes the concentration at which the activity in the assay is half-maximal. Low readings indicate greater potency, high ones weaker potency. For `N=c1c2c(-c3ccccc3)c(-c3ccccc3)n(Cc3ccccc3)c2ncn1[C@@H]1CCCC[C@H]1O`, the AC50 turned out to be 3.26 µM.

In turn, `N=c1c2c(-c3ccccc3)c(-c3ccccc3)n(CCc3ccccc3)c2ncn1CCC1CCC(O)CC1` (stereo not shown) returned an AC50 of 3.66 µM. The same measure, in the same setting: the same measure for `CO[C@H]1CC[C@H](n2cnc3c(c(-c4ccccc4)c(-c4ccccc4)n3CCc3ccccc3)c2=N)CC1`: 3.66 µM; for `N=c1c2c(-c3ccccc3)c(-c3ccccc3)n(CCc3ccccc3)c2ncn1CCO`: 4.61 µM.

On to `N=c1c2c(-c3ccccc3)c(-c3ccccc3)n(CCc3ccccc3)c2ncn1CCCO`, for which the AC50 came out at 4.61 µM.

Turning to `CN(C)CCn1cnc2c(c(-c3ccccc3)c(-c3ccccc3)n2CCc2ccccc2)c1=N`, the AC50 was found to be 5.17 µM. For the molecule `COc1ccc(Cn2c(-c3ccccc3)c(-c3ccccc3)c3c(=N)n(CCCCCO)cnc32)cc1`, half-maximal activity (AC50) was put at 5.17 µM. The same measure, in the same setting: the same measure for `COc1ccc(Cn2c(-c3ccccc3)c(-c3ccccc3)c3c(=N)n(CCCO)cnc32)cc1`: 5.17 µM; for `N=c1c2c(-c3ccccc3)c(-c3ccccc3)n(Cc3ccccc3)c2ncn1CCO`: 5.8 µM. Same read-out and setting: to `N=c1c2c(-c3ccccc3)c(-c3ccccc3)n(CC3CC3)c2ncn1C1CCOCC1` belongs 7.31 µM; to `N=c1c2c(-c3ccccc3)c(-c3ccccc3)n(CCc3ccccc3)c2ncn1[C@@H]1CCCC[C@H]1O`, 7.31 µM; to `N=c1c2c3c(n(CCc4ccccc4)c2ncn1C1CCOCC1)CCCC3`, 7.31 µM.

`N=c1c2c(-c3ccccc3)c(-c3ccccc3)n(Cc3ccccc3)c2ncn1CC1COC1` returned an AC50 of 8.2 µM. In turn, `COc1ccc(Cn2c(-c3ccccc3)c(-c3ccccc3)c3c(=N)n(CC4CCOCC4)cnc32)cc1` showed an AC50 of 9.2 µM. For the molecule `N=c1c2c(-c3ccccc3)c(-c3ccccc3)n(Cc3ccccc3)c2ncn1[C@H]1CC[C@H](CO)CC1`, the AC50 stood at 9.2 µM. In other words, the single-digit micromolar range.
